# From patent US20180282297A1, “POLYMORPHS OF 3-(4-AMINO-1-OXOISOINDOLIN-2-YL)PIPERIDINE-2,6-DIONE” (Shenzhen Jingtai Technology Co., Ltd., priority 2017, published 2018)
# Entries after “also recorded” stand apart in the source; their conditions may differ. Where two headings read alike, the source gives them in different places.
# Experiments:
# [1] = Thermal stability (polymorph conversion on heating, XRPD); format: physicochemical
# Description: In one embodiment, Form DH converts to a different polymorph at an elevated temperature (e.g., 170° C. or higher). In one embodiment, when heated to 170° C., Form DH converts to a polymorph characterized by an XRPD pattern substantially similar to that set forth in FIG. 10 (“Form F”). In one embodiment, when heated to 190° C., Form DH converts to a polymorph characterized by an XRPD pattern substantially similar to that set forth in FIG. 11 (“Form A”).
# In one embodiment, Form α converts to a different polymorph at an elevated temperature (e.g., 230° C. or higher). In one embodiment, when heated to 230° C., Form α converts to a polymorph characterized by an XRPD pattern substantially similar to that set forth in FIG. 26 (“Form A”).
# [2] = Powder dissolution study in water; format: physicochemical; conditions: 500 mg in 500 mL water, 50 rpm, up to 300 min
# Description: Samples (2 mL) were collected at 1 min, 2 min, 5 min, 10 min, 15 min, 20 min, 30 min, 40 min, 50 min, 60 min, 80 min, 100 min, 120 min, 150 min, 180 min, 210 min, 240 min, 270 min, and 300 min. Water (2 mL) was added each time when a sample was taken. The XRPD of the solid samples were measured.
# [3] = Accelerated stability studies (storage, XRPD)
# Description: 10 mg of Form DH or Form α of the present application was each put in a testing tube. The testing tubes were placed separately in sealed storage bags. The bags were stored under 40° C./75% RH or RT/P2O5. Samples of the polymorph were collected at day 1, day 3, day 5, day 7, day 14, day 21, and day 28 for XRPD measurement.
# [4] = Crystallinity of polymorphs; format: physicochemical; conditions: polymorphs of the application
# Description: XRPD patterns of the polymorphs obtained in the Examples were collected on a D/MAX 2500 diffractometer using the following setting: Cu Kα radiation λ 1.5418 Å, 40 kV, 200 mA, […] 2-40° at 8°/min.
# [5] = Hygroscopicity, dynamic vapor sorption (DVS); format: physicochemical; conditions: 25° C., 1~95% RH
# Description: About 3 mg Form DH prepared in Example 1 was subject to dynamic vapor sorption analysis with a VTI-SA+ type dynamic vapor sorption analyzer (US TA Instruments Company). The temperature was 25° C., and the range of the relative humidity was 1-95%.
# About 3 mg Form α prepared in Example 4 was subject to Dynamic Vapor Sorption analysis with a VTI-SA+ type dynamic vapor sorption analyzer (US TA Instruments Company). The temperature was 25° C., and the range of the relative humidity was 1-95%.
# [6] = Stability of polymorphs in solution (suspension in solvent, XRPD of the solid); format: physicochemical; conditions: for Stability in solution: polymorphic form: ethanol, acetonitrile, tetrahydrofuran, ethyl acetate, and dioxane, 20° C. for 24 hours; for Stability in solution: polymorph converted (Cv.) to: suspension kept at 20° C. for 24 hours
# Description: (§1) 15 mg of the polymorph obtained in Example 1 was placed in a 2 mL container. 1 mL of the each of the following solvents was added: methanol, ethanol, acetone, acetonitrile, tetrahydrofuran, nitromethane, ethyl acetate, or dioxane. The container was sonicated to dissolve Compound A. The resulting supersaturated suspension was kept at 20° C. for 24 hours. After centrifugation, the supernatant was removed, and the solid was dried at 45° C. for 2 hours. The XRPD of the solid was measured.
# as §1, with “Example 4” for “Example 1”, “tetrahydrofuran,” for “tetrahydrofuran, nitromethane,”, “acetate, dioxane,” for “acetate,”, “or water.” for “or dioxane.”
# [7] = comparison polymorphs, cited from earlier work
# [8] = cited from earlier work; for Hygroscopicity: Wt. increase: 5~95% RH
# [9] = Study of polymorphic forms of Compound A stirred in water (XRPD); format: physicochemical; conditions: 300 rpm
# Description: 600 mg Compound A was placed in a 100 mL container. After 40 mL water was added, the container was stirred at 300 rpm at 20° C. After 12 hours, a sample was taken from the container and an XRPD was measured. […] The XRPD, TG, and DSC of Form E are shown in FIGS. 12, 13, and 14, respectively.
# 600 mg Compound A was placed in a 100 mL container. After 40 mL water was added, the container was stirred at 300 rpm at 25° C. After 48 hours, a sample was taken from the container and an XRPD was measured. […] A sample taken after 168 hours at 25° C. still had the same XRPD as the Form E polymorph described in Chinese Patent No. 1871003.
# 600 mg Compound A was placed in a 100 mL container. After 40 mL water was added, the container was stirred at 300 rpm at 15° C. After 10 hours, a sample was taken from the container and an XRPD was measured.
# [10] = comparison polymorphs, cited from earlier work; remark: listed apart in the source
# [11] = cited from earlier work
# [12] = in acetone; comparison polymorphs; listed as B; cited from earlier work
structure (smiles),measurement,setting,value
"Nc1cccc2c1CN(C1CCC(=O)NC1=O)C2=O (stereo not drawn) [Form α, 3-(4-amino-1-oxoisoindolin-2-yl)piperidine-2,6-dione]",Thermal stability: polymorph converted (Cv.) to,[1]; heated to 230° C.,Form A
same,Dissolution: crystal conversion (Cv.) during powder dissolution,[2],Form E
same,"Accelerated stability (stable, or polymorph converted to)",[3]; 28 days at RT/P2O5,did not change
same,"Accelerated stability (stable, or polymorph converted to)","[3]; 28 days at RT/P2O5, listed as α",Stable after
same,Crystallinity,[4],Good
same,Hygroscopicity: crystal form after DVS,[5],remained unchanged
same,Hygroscopicity: Wt. increase,[5]; listed as α,No significant
same,Hygroscopicity: crystal form after DVS,[5]; listed as α,No change
same,Stability in solution: polymorphic form,"[6]; in methanol, acetone",stable; also recorded: maintained its polymorphic form as Form α
same,Stability in solution: polymorph converted (Cv.) to,[6]; in water,Form DH
"Nc1cccc2c1CN(C1CCC(=O)NC1=O)C2=O (centres unmarked) [Form DH, 3-(4-amino-1-oxoisoindolin-2-yl)piperidine-2,6-dione]",Thermal stability: polymorph converted (Cv.) to,[1]; heated to 170° C.,Form F
same,Thermal stability: polymorph converted (Cv.) to,[1]; heated to 190° C.,Form A
same,Dissolution: crystal conversion (Cv.) during powder dissolution,[2],did not change
same,"Accelerated stability (stable, or polymorph converted to)",[3]; 28 days at 40° C./75% RH,stable
same,"Accelerated stability (stable, or polymorph converted to)","[3]; 28 days at 40° C./75% RH, listed as DH",Stable
same,Crystallinity,[4],Good
same,Hygroscopicity: Wt. increase,[5],No weight increase
same,Hygroscopicity: crystal form after DVS,[5],remained unchanged
same,Hygroscopicity: Wt. increase,[5]; listed as DH,No significant
same,Hygroscopicity: crystal form after DVS,[5]; listed as DH,No change
same,Stability in solution: polymorph converted (Cv.) to,[6]; in acetone,Form C
same,Stability in solution: polymorph converted (Cv.) to,"[6]; in acetone, listed as DH",Form C in
same,Stability in solution: polymorphic form,"[6]; in water, methanol",maintained its polymorphic form as Form DH; also recorded: stable
"Nc1cccc2c1CN(C1CCC(=O)NC1=O)C2=O (centres unmarked) [Form H, 3-(4-amino-1-oxoisoindolin-2-yl)piperidine-2,6-dione]",Crystallinity,[7],relatively poor
"Nc1cccc2c1CN(C1CCC(=O)NC1=O)C2=O (centres unmarked) [Form D, 3-(4-amino-1-oxoisoindolin-2-yl)piperidine-2,6-dione]",Crystallinity,[7]; listed as D,Good
"Nc1cccc2c1CN(C1CCC(=O)NC1=O)C2=O (centres unmarked) [Form E, 3-(4-amino-1-oxoisoindolin-2-yl)piperidine-2,6-dione]",Crystallinity,[7]; listed as E,Good
"Nc1cccc2c1CN(C1CCC(=O)NC1=O)C2=O (centres unmarked) [Form C, 3-(4-amino-1-oxoisoindolin-2-yl)piperidine-2,6-dione]",Crystallinity,[7]; listed as C,Good
same,Hygroscopicity: Wt. loss,[8]; at 95% RH,by 6.03% at
"Nc1cccc2c1CN(C1CCC(=O)NC1=O)C2=O (centres unmarked) [Compound A, 3-(4-amino-1-oxoisoindolin-2-yl)piperidine-2,6-dione]",Crystallinity,[7],Good
same,Polymorphic form by XRPD after stirring in water,"[9]; 15° C., 34 hours",Form DH
same,Polymorphic form by XRPD after stirring in water,"[9]; 15° C., after 10 hours",Form E
same,Polymorphic form by XRPD after stirring in water,"[9]; 20° C., 108 hours",Form DH
same,Polymorphic form by XRPD after stirring in water,"[9]; 20° C., after 12 hours",Form E
same,Polymorphic form by XRPD after stirring in water,"[9]; 25° C., after 48 hours",Form E
same,Polymorphic form by XRPD after stirring in water,"[9]; 25° C., after 168 hours",Form E
same,Dissolution: crystal conversion (Cv.) during powder dissolution,[2],Form E
same,Hygroscopicity: Wt. increase,[8],No significant
same,Thermal stability,[10]; temperature not given,No Cv.
"Nc1cccc2c1CN(C1CCC(=O)NC1=O)C2=O (centres unmarked) [Form B, 3-(4-amino-1-oxoisoindolin-2-yl)piperidine-2,6-dione]",Crystallinity,[7]; listed as B,Good
same,Accelerated stability,[11]; 85 days at 40° C./93% RH,Stable for 85
same,Accelerated stability,[11]; 85 days at RT/0% RH,Stable for 85
same,Hygroscopicity: Wt. increase,[8],No significant
same,Stability in solution: polymorph converted (Cv.) to,[12],"THF, to Form C"
same,Thermal stability: polymorph converted (Cv.) to,[10]; at 175° C.,Cv. to Form A at
